Source: paper PMC7645381, “Development and application of a high-throughput screening assay for identification of small molecule inhibitors of the P. falciparum reticulocyte binding-like homologue 5 protein” (International Journal for Parasitology: Drugs and Drug …, 2020)

Columns and labels:
D10-PfPHG parasites = test: Schizont rupture assay; format: cell-based, P. falciparum
Method: D10-PfPHG parasites ([Wilson et al., 2010]) were cultured in human O^+ erythrocytes in RPMI-HEPES culture medium (pH 7.4, 50 μg/mL hypoxanthine, 25 mM NaHCO3, 20 μg/mL gentamicin, 0.5% Albumax II (Thermo Fisher Scientific) according to established protocols ([Trager and Jensen, 1976]) and maintained in an atmosphere of 1% O2, 4% CO2 and 95% N2. For assessment of merozoite invasion after schizont rupture, parasites were tightly synchronised to a 4 h window of invasion using heparin ([Boyle et al., 2010]; [Wilson et al., 2015]) and then grown for a further 42 h. Drug treatments were setup at 2–3% parasitaemia and 1% haematocrit in 50 μL volumes with a 1 in 10 dilution of drug added when parasites were 44–48 h post invasion. After 6 h of drug treatment and immediately after invasion was expected to finish, the assays were treated with 5 μg/mL ethidium bromide (EtBr, Bio-Rad) for 5 min prior to flow cytometry assessment of parasitaemia using a Becton Dickinson Accuri. Gating of newly invaded rings, free merozoites and unruptured late stages was achieved as per published methods ([Wilson et al., 2013]).
To determine if the modest activity of pranlukast and analogues in the parasite viability assay was a consequence of invasion inhibition, rather than inhibition at another stage of blood stage parasite development, we performed an assay that measures the effect of compound treatment on P. falciparum D10 asexual stage transition between late schizont and ring stages ([Wilson et al., 2013]). In this assay, highly synchronised mature schizont-stage parasites were incubated with pranlukast and selected analogues at 50 and 100 μM and the transition to newly invaded ring stage parasites was quantified by flow cytometry. In parallel, the rate of schizont rupture and merozoite release was quantified to assess whether any reduction in newly invaded ring stages was due to a block affecting merozoite release or development. […] Neither DMSO (at the maximal concentration used for the drug treatments of 0.1%) or a non-invasion inhibitory mAb control caused a reduction in merozoite invasion. […] […].

[1] = target: T1, P. falciparum Rh5 (Rh5 – basigin interaction) (Plasmodium falciparum, UniProt Q8IFM5); test: biochemical; design: AlphaScreen of Rh5 - His-tagged basigin interaction with anti-Rh5 mAb beads; inhibition of luminescence signal; conditions: Batch Reference=01; confirmation screen, duplicate
Method: Using the Combi-multidrop, 5 μL of Rh5 stock solution (200 nM prepared in assay buffer) was added to columns 1–24 of the 384-well assay plate (Greiner 384-well white, low binding plate, #784904, Bioone). The PerkinElmer Janus automated dispensing system was then employed to transfer, via the pin-tool, 2 × 100 nL of the compound stock DMSO solution from the compound master plate to the assay plate. The plate was sealed and incubated for 30 min at room temperature. Using a Combi-multidrop, 5 μL of hexa-histidine tagged basigin stock solution (80 nM prepared in assay buffer) was then added to columns 1–23 and 5 μL assay buffer to column 24 of the 384-well assay plate. The plate was sealed again and incubated for 30 min at room temperature. A solution of AlphaScreen donor and acceptor beads (20 μg/mL prepared in assay buffer) plus anti-Rh5 mAb solution (2 μg/mL prepared in assay buffer) was prepared in assay buffer under subdued lighting. Using the Combi-multidrop, 10 μL of this solution was added to every well of the assay plate under subdued lighting. The plate was sealed with foil (plate max) and incubated at room temperature for 1 h. The assay plate was then analysed on the PerkinElmer Envision 2103 Multilabel Plate Reader (Ex 680, Em 520–620 nm). […] Historically, PPIs are notoriously difficult to target with small molecules. To enhance the likelihood of identifying an inhibitor of the Rh5 - basigin interaction the primary screen was conducted at a compound concentration of 20 μM. A 20 μM screening concentration is considered high, when compared to the commonly used primary screen concentrations of approximately 1–10 μM. […] To do this, a two-phase hit confirmation and counterscreen process was undertaken (Fig. 1). […] Both assays were undertaken at 10 μM in duplicate. The counterscreen assay was conducted using AlphaScreen TruHits.

[2] = target: T1, P. falciparum Rh5 (Rh5 – basigin interaction); test: biochemical; format: binding
HepG2 cells = test: HepG2 growth inhibition assay; format: cell-based; conditions: Homo sapiens, 10-point dilution series, 48 h, Cell Titre-Glo
Method: HepG2 cells were cultured in Dulbeccos modified eagle's medium (DMEM) supplemented with 10% fetal calf serum (FCS), in a humidified incubator at 37 °C and 5% CO2. Ten-point compound titration assays were performed by treating cells (1 × 10^3) for 48 h in 384 well tissue culture treated plates (Greiner). Cytotoxicity was determined using Cell Titer Glo (Promega) and calculated as a percentage using DMSO as a positive growth control and 10 μM Bortezomib as a negative growth control. EC50 values were calculated using a 4-parameter log dose, non-linear regression analysis, with sigmoidal dose response (variable slope) curve fit using Graph Pad Prism (version 6.05). 0 and 100 constraint parameters were used for curve fitting. […]

[3] = Solubility in SPR running buffer; format: physicochemical
PfRh5 = PfRh5 (Plasmodium falciparum, UniProt Q8IFM5); test: Differential scanning fluorimetry of Rh5; format: binding, P. falciparum; conditions: DSF
Method: Differential scanning fluorimetry assays were performed as described previously ([Murphy et al., 2013], [2014a], [2014b]) using a Rotor-Gene Q PCR. Briefly, purified PfRh5 was diluted in 20 mM Tris pH 8.0, 150 mM NaCl to achieve 10 μg per reaction and assayed with the appropriate concentration of inhibitor in a total reaction volume of 25 μL. SYPRO Orange (Molecular Probes, CA) was used as a fluorescence probe and detected at 530 nm. Compounds were titrated at final concentrations ranging from 5 μM to 80 μM final. Data was transformed and plotted using GraphPad Prism. Shown data are representative means of two technical experiments.

PfRh5, sequence (Q8IFM5 24-526): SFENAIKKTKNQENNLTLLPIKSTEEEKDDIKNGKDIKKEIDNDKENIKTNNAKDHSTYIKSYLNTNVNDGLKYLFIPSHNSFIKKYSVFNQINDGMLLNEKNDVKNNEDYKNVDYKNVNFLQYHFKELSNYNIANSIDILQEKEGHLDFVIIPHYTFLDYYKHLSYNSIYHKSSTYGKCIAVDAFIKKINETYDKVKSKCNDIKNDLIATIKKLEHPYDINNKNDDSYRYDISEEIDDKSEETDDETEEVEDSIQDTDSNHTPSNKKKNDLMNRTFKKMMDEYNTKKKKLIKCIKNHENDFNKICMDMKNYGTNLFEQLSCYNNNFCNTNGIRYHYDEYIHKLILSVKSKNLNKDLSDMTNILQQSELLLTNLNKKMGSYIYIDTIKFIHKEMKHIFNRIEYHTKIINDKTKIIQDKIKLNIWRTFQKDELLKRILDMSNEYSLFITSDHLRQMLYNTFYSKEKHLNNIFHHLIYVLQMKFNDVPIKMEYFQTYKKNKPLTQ
T1 sequence (Q8IFM5 24-526): as above

## O=C(Nc1cccc2c(=O)cc(-c3nnn[nH]3)oc12)c1ccc(OCCCCc2ccccc2)cc1 [pranlukast]
D10-PfPHG parasites; 50 and 100 μM, 6 h, flow cytometry
  merozoite invasion (newly invaded early ring stages): substantial reduction in the numbers of merozoites that had invaded and formed early ring stages
D10-PfPHG parasites; lowest concentration tested (50 μM)
  free merozoite numbers: minimal loss in free merozoite numbers
[1]
  inhibition at 10 µM: 69%
[2]
  IC50: 12 µM
HepG2 cells
  EC50: > 50 µM
[3]
  solubility in the SPR running buffer: limited solubility
PfRh5; concentrations of 0–20 μM
  effect on Tm of Rh5: dose dependent increase in the Tm of Rh5
PfRh5; high concentration (>40 μM)
  effect on Tm of Rh5: markedly lower Tm
